{"source": "patent US20120015998A1", "about": "(priority 2010, published 2012)", "key": {"[1]": {"test_system": "actinic keratoses lesions", "experiment": "Phototherapy of actinic keratoses lesions with topical photosensitizer prodrug and red light emitting OLED (Device A)", "assay_type": "in vivo, person", "conditions": "20% topical solution on individual lesions; illuminated about 14-18 hours after application with red OLED Device A", "text": "5-Aminolevulinic acid HCl (20% topical solution, available as LEVULAN® KERASTICK® from DUSA® Pharmaceuticals) is topically applied to individual lesions on a person suffering from actinic keratoses.\nMethyl aminolevulinate (16.8% topical cream, available as METVIXIA® Cream from GALERMA LABORATORIES, Fort Worth, Tex., USA) is topically applied to individual lesions on a person suffering from actinic keratoses."}, "[2]": {"test_system": "presumed ocular histoplasmosis", "set-up": "species or system person", "conditions": "in vivo, iv"}, "[3]": {"test_system": "age-related macular degeneration", "experiment": "Verteporphin phototherapy of age-related macular degeneration, retina illuminated with red OLED (Device A)", "conditions": "about 6 mg/m^2 i.v. over about 10 minutes; retina illuminated about 15 minutes after start of infusion with red OLED Device A"}, "pathological myopia": {"test_system": "pathological myopia", "experiment": "Verteporphin phototherapy of pathological myopia, retina illuminated with red OLED (Device A)", "conditions": "about 6 mg/m^2 i.v. over about 10 minutes; retina illuminated about 15 minutes after start of infusion with red OLED Device A"}}}
{"smiles": "Cl.NCC(=O)CCC(=O)O", "note": "[5-Aminolevulinic acid HCl]", "values": [{"measurement": "number or severity of the lesions after the treatment", "setting": "[1]", "result": "anticipated to be reduced"}]}
{"smiles": "C=Cc1c(C)c2cc3nc(cc4[nH]c(cc5nc(cc1[nH]2)C(C)=C5CCC(=O)O)c(CCC(=O)OC)c4C)[C@@]1(C)C3=CC=C(C(=O)OC)[C@H]1C(=O)OC", "note": "[Verteporphin]", "values": [{"measurement": "patient's vision after treatment", "setting": "[2]", "result": "anticipated to be stabilized"}, {"measurement": "patient's vision after treatment", "setting": "[3]", "result": "anticipated to be stabilized"}, {"measurement": "patient's vision after treatment", "setting": "pathological myopia", "result": "anticipated to be stabilized"}]}
